The results in this text go back to patent US20220235005A1, “FUNGICIDAL N-(PYRID-3-YL)CARBOXAMIDES” (BASF SE, priority 2019, published 2022).

`Cc1cc(NC(=O)/C(=N/OCC(C)C)c2ccccc2)cnc1C` [Ex-8, (2E)-N-(5,6-dimethyl-3-pyridyl)-2-isobutoxyimino-2-phenyl-acetamide] displayed a melting point of 169 °C.
